Test results: ChEMBL document CHEMBL5505958, “Optimization of sequence and chiral content enhances therapeutic potential of tilapia piscidin peptides” (Eur J Med Chem, 2024)
Calls of active or inactive are those of the source.

Legend:
[1] = test system: Klebsiella pneumoniae; assay: Bactericidal activity against Klebsiella pneumoniae BAA 2473 assessed as inhibition of bacterial growth in presence of 10 microg/ml of proteinase K (reference value: 1.56 to 3.13 microM); format: functional
[2] = test system: Klebsiella pneumoniae; assay: Antibacterial activity against Klebsiella pneumoniae BAA 2473 assessed as inhibition of bacterial growth incubated for 16 to 20 hrs; format: functional; conditions: time 16-20 hrs
[3] = test system: Klebsiella pneumoniae; assay: Antibacterial activity against Klebsiella pneumoniae BAA 2473 assessed as inhibition of bacterial growth in presence of 10 microg/ml of pepsin (reference value: 1.56 to 3.13 microM); format: functional
[4] = test system: Cell membrane; assay: Induction of cell membrane depolarization in Klebsiella pneumoniae BAA 2473 assessed as increase in fluorescence intensity at 1 times MIC incubated for 40 mins by DiBAC4(3) fluorescent dye based assay; format: cell membranes
[5] = test system: Vibrio vulnificus; assay: Bactericidal activity against Vibrio vulnificus 204 assessed as inhibition of bacterial growth incubated for 16 to 20 hrs; format: functional; conditions: time 16-20 hrs
[6] = test system: Salmonella enterica; assay: Bactericidal activity against Salmonella enterica 15455 assessed as inhibition of bacterial growth incubated for 16 to 20 hrs; format: functional; conditions: time 16-20 hrs
[7] = test system: Klebsiella pneumoniae; assay: Antibacterial activity against Klebsiella pneumoniae BAA 2473 assessed as inhibition of bacterial growth in presence of 0.1 microg/ml of pepsin (reference value: 1.56 to 3.13 microM); format: functional
[8] = test system: Klebsiella pneumoniae; assay: Bactericidal activity against Klebsiella pneumoniae BAA 2473 assessed as inhibition of bacterial growth in presence of 1 microg/ml of proteinase K (reference value: 1.56 to 3.13 microM); format: functional
[9] = test system: Cell membrane; assay: Induction of outer cell membrane permeabilization in Klebsiella pneumoniae BAA 2473 assessed as increase in fluorescence intensity by NPN uptake assay; format: cell membranes
[10] = test system: Enterococcus faecium; assay: Bactericidal activity against Enterococcus faecium 10067 assessed as inhibition of bacterial growth incubated for 16 to 20 hrs; format: functional; conditions: time 16-20 hrs
[11] = test system: Klebsiella pneumoniae; assay: Antibacterial activity against Klebsiella pneumoniae BAA 2473 assessed as inhibition of bacterial growth in presence of 0.1 microg/ml of chymotrypsin (reference value: 1.56 to 3.13 microM); format: functional
[12] = test system: Salmonella enterica; assay: Bactericidal activity against Salmonella enterica 15455 assessed as inhibition of bacterial growth incubated for 16 to 20 hrs in presence of human serum; format: functional; conditions: time 16-20 hrs
[13] = test system: Klebsiella pneumoniae; assay: Bactericidal activity against Klebsiella pneumoniae BAA 2473 assessed as inhibition of bacterial growth in presence of 10 microg/ml of pepsin (reference value: 1.56 to 3.13 microM); format: functional
[14] = test system: Klebsiella aerogenes; assay: Antibacterial activity against Enterobacter aerogenes 15630 assessed as inhibition of bacterial growth incubated for 16 to 20 hrs; format: functional; conditions: time 16-20 hrs
[15] = test system: Vibrio vulnificus; assay: Bactericidal activity against Vibrio vulnificus 204 assessed as inhibition of bacterial growth incubated for 16 to 20 hrs in presence of human serum; format: functional; conditions: time 16-20 hrs
[16] = test system: Klebsiella pneumoniae; assay: Bactericidal activity against Klebsiella pneumoniae BAA 2473 assessed as inhibition of bacterial growth in presence of 0.1 microg/ml of proteinase K (reference value: 1.56 to 3.13 microM); format: functional
[17] = test system: Klebsiella pneumoniae; assay: Bactericidal activity against Klebsiella pneumoniae BAA 2473 assessed as inhibition of bacterial growth in presence of 0.1 microg/ml of pepsin (reference value: 1.56 to 3.13 microM); format: functional
[18] = test system: Yersinia enterocolitica; assay: Bactericidal activity against Yersinia enterocolitica 13999 assessed as inhibition of bacterial growth incubated for 16 to 20 hrs; format: functional; conditions: time 16-20 hrs
[19] = test system: Klebsiella pneumoniae; assay: Antibacterial activity against Klebsiella pneumoniae BAA 2473 assessed as inhibition of bacterial growth in presence of 0.1 microg/ml of proteinase K (reference value: 1.56 to 3.13 microM); format: functional
[20] = test system: Klebsiella pneumoniae; assay: Antibacterial activity against Klebsiella pneumoniae BAA 2473 assessed as inhibition of bacterial growth in presence of 1 microg/ml of proteinase K (reference value: 1.56 to 3.13 microM); format: functional
[21] = test system: Klebsiella pneumoniae; assay: Bactericidal activity against Klebsiella pneumoniae BAA 2473 assessed as inhibition of bacterial growth in presence of 10 microg/ml of trypsin (reference value: 1.56 to 3.13 microM); format: functional
[22] = test system: Klebsiella pneumoniae; assay: Antibacterial activity against Klebsiella pneumoniae BAA 2473 assessed as inhibition of bacterial growth in presence of 1 microg/ml of chymotrypsin (reference value: 1.56 to 3.13 microM); format: functional
[23] = test system: Enterococcus faecalis; assay: Bactericidal activity against Enterococcus faecalis 10066 assessed as inhibition of bacterial growth incubated for 16 to 20 hrs; format: functional; conditions: time 16-20 hrs
[24] = test system: Salmonella enterica; assay: Antibacterial activity against Salmonella enterica 15455 assessed as inhibition of bacterial growth incubated for 16 to 20 hrs; format: functional; conditions: time 16-20 hrs
[25] = test system: Rhizopus arrhizus; assay: Fungicidal activity against Rhizopus oryzae 34550 assessed as inhibition of fungal growth incubated for 16 to 20 hrs in presence of human serum; format: functional; conditions: time 16-20 hrs
[26] = test system: Klebsiella pneumoniae; assay: Bactericidal activity against Klebsiella pneumoniae 10692 assessed as inhibition of bacterial growth incubated for 16 to 20 hrs; format: functional; conditions: time 16-20 hrs
[27] = test system: Yersinia enterocolitica; assay: Antibacterial activity against Yersinia enterocolitica 13999 assessed as inhibition of bacterial growth incubated for 16 to 20 hrs; format: functional; conditions: time 16-20 hrs
[28] = test system: Salmonella typhimurium; assay: Antibacterial activity against Salmonella typhimurium DT104 assessed as inhibition of bacterial growth incubated for 16 to 20 hrs in presence of human serum; format: functional, Salmonella enterica subsp. enterica serovar Typhimurium; conditions: Salmonella enterica, time 16-20 hrs
[29] = test system: Klebsiella pneumoniae; assay: Bactericidal activity against Klebsiella pneumoniae BAA 2473 assessed as inhibition of bacterial growth in presence of 1 microg/ml of pepsin (reference value: 1.56 to 3.13 microM); format: functional
[30] = test system: Klebsiella pneumoniae; assay: Bactericidal activity against Klebsiella pneumoniae BAA 2473 assessed as inhibition of bacterial growth in presence of 1 microg/ml of chymotrypsin (reference value: 1.56 to 3.13 microM); format: functional
[31] = test system: Vibrio vulnificus; assay: Antibacterial activity against Vibrio vulnificus 204 assessed as inhibition of bacterial growth incubated for 16 to 20 hrs in presence of human serum; format: functional; conditions: time 16-20 hrs
[32] = test system: Klebsiella oxytoca; assay: Bactericidal activity against Klebsiella oxytoca 13985 assessed as inhibition of bacterial growth incubated for 16 to 20 hrs in presence of human serum; format: functional; conditions: time 16-20 hrs
[33] = test system: Staphylococcus haemolyticus; assay: Bactericidal activity against Staphylococcus haemolyticus 15237 assessed as inhibition of bacterial growth incubated for 16 to 20 hrs; format: functional; conditions: time 16-20 hrs
[34] = test system: Klebsiella pneumoniae; assay: Antibacterial activity against Klebsiella pneumoniae 10692 assessed as inhibition of bacterial growth incubated for 16 to 20 hrs; format: functional; conditions: time 16-20 hrs
[35] = test system: Acinetobacter baumannii; assay: Antibacterial activity against Acinetobacter baumannii 10591 assessed as inhibition of bacterial growth incubated for 16 to 20 hrs in presence of human serum; format: functional; conditions: time 16-20 hrs
[36] = test system: Klebsiella pneumoniae; assay: Antibacterial activity against Klebsiella pneumoniae BAA 2473 assessed as inhibition of bacterial growth in presence of 1 microg/ml of trypsin (reference value: 1.56 to 3.13 microM); format: functional
[37] = test system: Salmonella typhimurium; assay: Antibacterial activity against Salmonella typhimurium DT104 assessed as inhibition of bacterial growth incubated for 16 to 20 hrs; format: functional, Salmonella enterica subsp. enterica serovar Typhimurium; conditions: Salmonella enterica, time 16-20 hrs
[38] = test system: Klebsiella oxytoca; assay: Antibacterial activity against Klebsiella oxytoca 13985 assessed as inhibition of bacterial growth incubated for 16 to 20 hrs in presence of human serum; format: functional; conditions: time 16-20 hrs
[39] = test system: Salmonella typhimurium; assay: Bactericidal activity against Salmonella typhimurium DT104 assessed as inhibition of bacterial growth incubated for 16 to 20 hrs in presence of human serum; format: functional, Salmonella enterica subsp. enterica serovar Typhimurium; conditions: Salmonella enterica, time 16-20 hrs

CC(C)C[C@H](NC(=O)[C@@H](C)NC(=O)[C@@H](CCCCN)NC(=O)[C@H](CC(C)C)NC(=O)[C@@H](CC(C)C)NC(=O)[C@@H](CCCCN)NC(=O)[C@H](CCCCN)NC(=O)[C@@H](CC(C)C)NC(=O)[C@H](N)Cc1ccccc1)C(=O)N[C@H](Cc1ccccc1)C(=O)N[C@H](CO)C(=O)N[C@@H](C)C(=O)N1CCC[C@@H]1C(=O)N[C@H](CCCCN)C(=O)N[C@@H](C)C(=O)N[C@H](CC(C)C)C(=O)N[C@H](CCCCN)C(=O)N[C@@H](CCCNC(=N)N)C(=O)N[C@H](CC(C)C)C(=O)N[C@H](CC(C)C)C(=O)N[C@@H](CCCNC(=N)N)C(=O)N[C@H](CCCNC(=N)N)C(=O)N[C@H](CCCNC(=N)N)C(=O)N[C@@H](CCCNC(=N)N)C(=O)N[C@@H](CCCNC(=N)N)C(=O)O
0.78 µM: MIC [2] | MIC [3] | MIC [7] | MBC [8] | MIC [11] | MBC [12] | MIC [19] | MIC [20] | MIC [22] | MBC [30] | MIC [36]
12.5 µM: MBC [5] | MBC [10] | MBC [15] | MBC [23] | MIC [31]
6.25 µM: MIC [28] | MBC [32] | MIC [34] | MIC [38] | MBC [39]
25 µM: MBC [26]
active: Activity [4] | Activity [9]
100 µM: MFC [25]
3.13 µM: MBC [6] | MIC [14] | MBC [18] | MIC [24] | MIC [27] | MIC [37]
1.56 µM: MBC [1] | MBC [13] | MBC [16] | MBC [17] | MBC [21] | MBC [29] | MBC [33] | MIC [35]
